Assays:
[1] = Solubility in distilled water at room temperature; assay type: physicochemical
Description: The melting point of the clear swainsonine hydrochloride crystal (prism) was 190-191° C. The solubility of swainsonine hydrochloride in distilled water at room temperature was about 3 g/ml, in contrast to the solubility of swainsonine free base, which is about 0.8 g/ml (see Table 5).

[2] = biological target: T1, purified rat liver Golgi mannosidase II (Rattus norvegicus, UniProt P28494); experiment: Inhibition of purified Golgi mannosidase II in vitro (p-nitrophenyl mannopyranoside); assay type: biochemical; conditions: pH 5.6, 60 minutes at 37° C.
T1 construct: 15 μl of purified rat liver Golgi mannosidase II; from tissue; host or cells: rat liver
T1 sequence (P28494 1-1148): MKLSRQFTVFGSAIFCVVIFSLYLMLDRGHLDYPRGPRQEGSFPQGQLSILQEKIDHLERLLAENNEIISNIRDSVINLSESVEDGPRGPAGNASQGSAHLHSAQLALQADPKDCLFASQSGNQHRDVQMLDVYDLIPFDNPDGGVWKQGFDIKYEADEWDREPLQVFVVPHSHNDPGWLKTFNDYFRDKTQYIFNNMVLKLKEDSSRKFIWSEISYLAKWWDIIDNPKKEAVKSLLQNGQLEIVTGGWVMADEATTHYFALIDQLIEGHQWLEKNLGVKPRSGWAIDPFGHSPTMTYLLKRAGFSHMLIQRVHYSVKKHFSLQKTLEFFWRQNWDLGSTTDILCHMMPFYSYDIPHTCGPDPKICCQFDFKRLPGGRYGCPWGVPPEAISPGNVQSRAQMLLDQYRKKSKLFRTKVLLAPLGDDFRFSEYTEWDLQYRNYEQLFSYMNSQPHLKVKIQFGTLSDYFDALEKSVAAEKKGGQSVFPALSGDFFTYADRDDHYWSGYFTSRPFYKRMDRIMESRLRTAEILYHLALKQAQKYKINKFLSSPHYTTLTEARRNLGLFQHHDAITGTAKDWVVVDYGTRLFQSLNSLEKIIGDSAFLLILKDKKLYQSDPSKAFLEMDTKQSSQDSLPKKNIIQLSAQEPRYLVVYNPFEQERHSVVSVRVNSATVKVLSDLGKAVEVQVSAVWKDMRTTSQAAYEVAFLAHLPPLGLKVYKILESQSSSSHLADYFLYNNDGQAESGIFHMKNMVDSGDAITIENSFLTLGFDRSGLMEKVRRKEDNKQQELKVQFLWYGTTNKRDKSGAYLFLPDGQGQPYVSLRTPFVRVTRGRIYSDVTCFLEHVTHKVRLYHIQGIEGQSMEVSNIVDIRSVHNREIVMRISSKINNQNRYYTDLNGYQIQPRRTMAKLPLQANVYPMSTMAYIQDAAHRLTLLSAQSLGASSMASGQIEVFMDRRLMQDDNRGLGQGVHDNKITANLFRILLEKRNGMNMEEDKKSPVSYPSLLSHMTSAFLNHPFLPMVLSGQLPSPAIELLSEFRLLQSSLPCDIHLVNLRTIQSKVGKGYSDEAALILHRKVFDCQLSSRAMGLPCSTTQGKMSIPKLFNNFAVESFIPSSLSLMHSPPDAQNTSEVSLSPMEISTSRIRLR
Description: The test compound swainsonine is prepared by 0.4 serial dilution of a 40 μM stock. Present in each determination is 10 μl diluted test compound, 25 μl of 10 mM paranitrophenyl mannopyranoside, 200 mM sodium acetate, pH 5.6 and 15 μl of purified rat liver Golgi mannosidase II. After incubating the reaction for 60 minutes at 37° C., the reaction is quenched with 50 μl of 0.5 M sodium carbonate. Absorption is read at […]. After subtracting the blank from positive controls and samples, the samples are normalized against the positive control mean using a variable slope, sigmoidal curve fit, with bottom=0, top=100. The signal is proportional to the amount of products from the uninhibited reaction.

[3] = test system: SP1.A3a mouse mammary adenocarcinoma; experiment: SP1.A3a tumor growth in mice, Alzet mini-osmotic pump; assay type: in vivo, CBA/J mice; conditions: for difference in mean tumour volume between control and treatment groups: 0.5 mg/kg/day via osmotic pump over 28 days
Description: A metastatic subclone of the SP1 tumor line (A3a), mouse mammary adenocarcinoma was maintained in exponential growth in RPMI 1640 containing 10% FBS. The cells were harvested and resuspended at 1×10^6/ml or 1×10^7/ml in PBS and 0.1 ml containing 1×10^5 injected S.C. into the right flank of 7 week old female CBA/J mice (Jackson Laboratories). Alzet mini-osmotic pumps were implanted subcutaneously, on the opposite side of anesthetized animals. The pumps were primed to deliver saline (control) or 0.5 mg/kg/day of swainsonine hydrochloride over 28 days. Mice were monitored for the appearance of a palpable tumour and subsequent tumor growth was measured using bernier callipers. Tumor weights and the number of lung metastasis were measured on day 42.

[4] = Toxicology studies (acute and chronic); assay type: in vivo
Description: Pharmacological and toxicological studies were conducted with swainsonine hydrochloride. In particular, the following were investigated: (a) pharmacokinetics of the compound in rats and monkeys; (b) acute toxicity at significant multiples of the intended human dose; (c) the toxicity profile of the compound was compared to the literature profile for swainsonine free base; (d) potential for genotoxicity; (e) time course, dose-dependence, tissue sensitivity and reversibility of oligosaccharide accumulation in tissue; and (f) serum AST and relationship to liver histology.

STAT3 = STAT3 level in mice (Western blot); assay type: in vivo, DBA/2 mice; conditions: 20 μg/day ip, spleen
Description: To measure the level and activation of STATs, DBA/2 mice are treated for 6-9 days with 20 μg/mouse/day of swainsonine hydrochloride followed by a single intraperitoneal (i.p) injection of either sterile saline or 100 μg of poly IC (i.e., dsRNA, a surrogate for virus) in sterile saline. Two hours later an optimal time for STAT activation, spleens of the mice are homogenized and cytosolic and nuclear cell extracts are prepared. STAT protein levels are measured in the cytosolic and nuclear fractions by Western blot analysis. STAT phosphorylation (i.e. activation) is measured following immunoprecipitation using anti-phosphotyrosine antibodies.

SMILES: Cl.O[C@H]1[C@H]2[C@H](O)CCCN2C[C@@H]1O [swainsonine hydrochloride, (−)-(1S,2S,8R,8aR)-1,2,8-trihydroxyoctahydro-indolizidine hydrochloride salt]
- solubility in distilled water at room temperature ([1]; Table 5): 3000 mg/mL
- solubility in distilled water at room temperature ([1]; distilled water, room temperature): about 3 g/ml
- IC50 [2]: 68 ± 21 nM
- difference in mean tumour volume between control and treatment groups ([3]; day 29 as printed): 27%
- difference in mean tumour volume between control and treatment groups ([3]; day 32): 35%
- difference in mean tumour volume between control and treatment groups ([3]; day 42): 32%
- mean tumour weight ([3]; 0.5 mg/kg/day via osmotic pump, 42 day sacrifice, control 7.35 g): 4.87 g
- incidence of lung metastasis, average ([3]; 0.5 mg/kg/day via osmotic pump, day 42 sacrifice, control 1.8): 0.25 nodules/mouse
- dose at which acute toxicity occurs ([4]; acute toxicity): 13,000 times the intended human dose
- sites of oligomannoside accumulation in lysosomes ([4]; chronic studies, doses proposed for humans): thyroid and also possibly the kidney could be the sites of reversible accumulation
- STAT3 cytosolic protein levels (STAT3): remained unchanged

Source: US6395745B1, “Alkaloid halide salts of swainsonine and methods of use” (priority 1997, dated 2002)
